Reference: PMC9729598 (Bioorganic Chemistry, 2022)
Where “and” joins values, the source holds several entries; their conditions need not be identical. Equal entries are not always repeated.

How the values were obtained:
pSARS-CoV-2 = assay type: cell-based, SARS-CoV-2
SARS-CoV-2 3CL protease = SARS-CoV-2 3CL protease (Severe acute respiratory syndrome coronavirus 2, UniProt P0DTD1); test: biochemical; conditions: for inhibition at 100 µM: read-out: inhibition rate against 3CL (%)
SARS 3CL protease = conditions: read-out: IC50 on SARS 3CL protease activity; cited from earlier work

Row | Compound | EC50 (pSARS-CoV-2) [µM] | CC50 (293 T-ACE2 cells) [µM] | SI (pSARS-CoV-2) | other results
1 | C=C(C)C1CCC2(C(=O)OC3CCCCC3)CCC3(C)C(CCC4C5(C)CCC(OC6OC(CO)C(OC7OC(C)C(O)C(O)C7O)C(O)C6OC6OC(C)C(O)C(O)C6O)C(C)(C)C5CCC43C)C12 (stereo not drawn) [BA-9, Cyclohexyl-3β-O-[2,4-di-O-(α-l-rhamnopyranosyl)-β-d-glucopyranosyl]-lup-20 (29)-ene-28-oic acid] | > 20 |  |  | activity against pSARS-CoV-2 (pSARS-CoV-2): entirely lost
2 | C=C(C)C1CCC2(C(=O)OCCO)CCC3(C)C(CCC4C5(C)CCC(OC6OC(CO)C(OC7OC(C)C(O)C(O)C7O)C(O)C6OC6OC(C)C(O)C(O)C6O)C(C)(C)C5CCC43C)C12 (stereo not drawn) [BA-12, 2′-Hydroxylethyl-3β-O-[2,4-di-O-(α-l-rhamnopyranosyl)-β-d-glucopyranosyl]-lup-20 (29)-ene-28-oic acid] | > 20 |  |  | activity against pSARS-CoV-2 (pSARS-CoV-2): total loss of potency
3 | C=C(C)[C@@H]1CC[C@]2(C(=O)OCCCCC)CC[C@]3(C)[C@H](CC[C@@H]4[C@@]5(C)CC[C@H](O[C@@H]6O[C@H](CO)[C@@H](O[C@@H]7O[C@@H](C)[C@H](O)[C@@H](O)[C@H]7O)[C@H](O)[C@H]6O[C@@H]6O[C@@H](C)[C@H](O)[C@@H](O)[C@H]6O)C(C)(C)[C@@H]5CC[C@]43C)[C@@H]12 [BA-6, n-Pentyl-3β-O-[2,4-di-O-(α-l-rhamnopyranosyl)-β-d-glucopyranosyl]-lup-20 (29)-ene-28-oic acid] | 5.37 ± 0.37 | 24.4 ± 0.33 | 4.54 | fold increased toxic (293 T-ACE2 cells): 1.7 fold
4 | O=c1c2ccccc2[se]n1-c1ccccc1 [Ebselen] |  |  |  | inhibition rate against 3CL (%) (SARS-CoV-2 3CL protease): 97.6% and 96.2%; inhibition at 100 µM (SARS-CoV-2 3CL protease): 98.5%
5 | C=C(C)[C@@H]1CC[C@]2(C(=O)OCC3CC3)CC[C@]3(C)[C@H](CC[C@@H]4[C@@]5(C)CC[C@H](O[C@@H]6O[C@H](CO)[C@@H](O[C@@H]7O[C@@H](C)[C@H](O)[C@@H](O)[C@H]7O)[C@H](O)[C@H]6O[C@@H]6O[C@@H](C)[C@H](O)[C@@H](O)[C@H]6O)C(C)(C)[C@@H]5CC[C@]43C)[C@@H]12 [BA-15, Cyclopropylmethyl-3β-O-[2,4-di-O-(α-l-rhamnopyranosyl)-β-d-glucopyranosyl]-lup-20 (29)-ene-28-oic acid] | 15.9 ± 0.82 | 75.5 ± 1.63 | 4.75 | fold decreased potency (pSARS-CoV-2): 4.9 fold
6 | C=C(C)[C@@H]1CC[C@]2(C(=O)OCCCl)CC[C@]3(C)[C@H](CC[C@@H]4[C@@]5(C)CC[C@H](O[C@@H]6O[C@H](CO)[C@@H](O[C@@H]7O[C@@H](C)[C@H](O)[C@@H](O)[C@H]7O)[C@H](O)[C@H]6O[C@@H]6O[C@@H](C)[C@H](O)[C@@H](O)[C@H]6O)C(C)(C)[C@@H]5CC[C@]43C)[C@@H]12 [BA-10, 2′-Chloroethyl-3β-O-[2,4-di-O-(α-l-rhamnopyranosyl)-β-d-glucopyranosyl]-lup-20 (29)-ene-28-oic acid] | 7.67 ± 0.31 | 51.8 ± 1.35 | 6.75 | fold decreased potency (pSARS-CoV-2): 2.4 fold
7 | C=C(C)[C@@H]1CC[C@]2(C(=O)OCCCC)CC[C@]3(C)[C@H](CC[C@@H]4[C@@]5(C)CC[C@H](O[C@@H]6O[C@H](CO)[C@@H](O[C@@H]7O[C@@H](C)[C@H](O)[C@@H](O)[C@H]7O)[C@H](O)[C@H]6O[C@@H]6O[C@@H](C)[C@H](O)[C@@H](O)[C@H]6O)C(C)(C)[C@@H]5CC[C@]43C)[C@@H]12 [BA-5, n-Butyl-3β-O-[2,4-di-O-(α-l-rhamnopyranosyl)-β-d-glucopyranosyl]-lup-20 (29)-ene-28-oic acid] | 6.42 ± 0.2 | 76.5 ± 1.23 | 11.91 | 
8 | C=C(C)[C@@H]1CC[C@]2(C(=O)OCC)CC[C@]3(C)[C@H](CC[C@@H]4[C@@]5(C)CC[C@H](O[C@@H]6O[C@H](CO)[C@@H](O[C@@H]7O[C@@H](C)[C@H](O)[C@@H](O)[C@H]7O)[C@H](O)[C@H]6O[C@@H]6O[C@@H](C)[C@H](O)[C@@H](O)[C@H]6O)C(C)(C)[C@@H]5CC[C@]43C)[C@@H]12 [BA-3, Ethyl-3β-O-[2,4-di-O-(α-l-rhamnopyranosyl)-β-d-glucopyranosyl]-lup-20 (29)-ene-28-oic acid] | 3.7 ± 0.72 | 36.1 ± 1.05 | 9.76 | 
9 | C=CCOC(=O)[C@]12CC[C@@H](C(=C)C)[C@@H]1[C@H]1CC[C@@H]3[C@@]4(C)CC[C@H](O[C@@H]5O[C@H](CO)[C@@H](O[C@@H]6O[C@@H](C)[C@H](O)[C@@H](O)[C@H]6O)[C@H](O)[C@H]5O[C@@H]5O[C@@H](C)[C@H](O)[C@@H](O)[C@H]5O)C(C)(C)[C@@H]4CC[C@@]3(C)[C@]1(C)CC2 [BA-14, Allyl-3β-O-[2,4-di-O-(α-l-rhamnopyranosyl)-β-d-glucopyranosyl]-lup-20 (29)-ene-28-oic acid] | 8.23 ± 0.55 | 84.62 ± 0.76 | 10.28 | fold decreased potency (pSARS-CoV-2): 2.6 fold
10 | C=C(C)[C@@H]1CC[C@]2(C(=O)OC(C)C)CC[C@]3(C)[C@H](CC[C@@H]4[C@@]5(C)CC[C@H](O[C@@H]6O[C@H](CO)[C@@H](O[C@@H]7O[C@@H](C)[C@H](O)[C@@H](O)[C@H]7O)[C@H](O)[C@H]6O[C@@H]6O[C@@H](C)[C@H](O)[C@@H](O)[C@H]6O)C(C)(C)[C@@H]5CC[C@]43C)[C@@H]12 [BA-8, Isopropyl-3β-O-[2,4-di-O-(α-l-rhamnopyranosyl)-β-d-glucopyranosyl]-lup-20 (29)-ene-28-oic acid] | 6.05 ± 0.38 | 47.2 ± 0.63 | 7.81 | 
11 | C=C(C)[C@@H]1CC[C@]2(C(=O)OCCCCCC)CC[C@]3(C)[C@H](CC[C@@H]4[C@@]5(C)CC[C@H](O[C@@H]6O[C@H](CO)[C@@H](O[C@@H]7O[C@@H](C)[C@H](O)[C@@H](O)[C@H]7O)[C@H](O)[C@H]6O[C@@H]6O[C@@H](C)[C@H](O)[C@@H](O)[C@H]6O)C(C)(C)[C@@H]5CC[C@]43C)[C@@H]12 [BA-7, n-Hexyl-3β-O-[2,4-di-O-(α-l-rhamnopyranosyl)-β-d-glucopyranosyl]-lup-20 (29)-ene-28-oic acid] | 5.54 ± 0.81 | 16.4 ± 0.19 | 2.96 | fold increased toxic (293 T-ACE2 cells): 2.5 fold
12 | C=C(C)[C@@H]1CC[C@]2(C(=O)OCCBr)CC[C@]3(C)[C@H](CC[C@@H]4[C@@]5(C)CC[C@H](O[C@@H]6O[C@H](CO)[C@@H](O[C@@H]7O[C@@H](C)[C@H](O)[C@@H](O)[C@H]7O)[C@H](O)[C@H]6O[C@@H]6O[C@@H](C)[C@H](O)[C@@H](O)[C@H]6O)C(C)(C)[C@@H]5CC[C@]43C)[C@@H]12 [BA-11, 2′-Bromoethyl 3β-O-[2,4-di-O-(α-l-rhamnopyranosyl)-β-d-glucopyranosyl]-lup-20 (29)-ene-28-oic acid] | 9.03 ± 0.56 | 46.12 ± 0.31 | 5.11 | 
13 | 2′-Oxopethyl-3β-O-[2, 4-di-O-(α-l-rhamnopyranosyl)-β-d-glucopyranosyl]-lup-20 (29)-ene-28-oic acid [BA-13] | 8.61 ± 0.47 | 36.2 ± 0.75 | 4.21 | 
14 | C=C(C)[C@@H]1CC[C@]2(C(=O)O)CC[C@]3(C)[C@H](CC[C@@H]4[C@@]5(C)CC[C@H](O)C(C)(C)[C@@H]5CC[C@]43C)[C@@H]12 [BA, Betulinic acid] |  |  |  | inhibition rate against 3CL (%) (SARS-CoV-2 3CL protease): 51.4%; inhibition at 100 µM (SARS-CoV-2 3CL protease): 72.2%; IC50 (SARS 3CL protease): 10 µM
